Test results: ChEMBL document CHEMBL4483862, “Open-source discovery of chemical leads for next-generation chemoprotective antimalarials” (2018)

System: Plasmodium berghei
Test: Luciferase/luciferin-expressing antifolate-resistant parasites were used to infect a culture of HepG2 cells that were pre-incubated with compounds. Infected hepatocytes emit light due to the luciferase reaction. Assay results are presented as the percent inhibition of light emission compared to control. […]
Type: functional
Settings: sporozoite; for IC50: read-out: LUCIFERASE INFECTION ASSAY - IC50; for IC90: read-out: LUCIFERASE INFECTION ASSAY - IC90

Row | SMILES | IC50 [µM] | IC90 [µM]
1 | Cc1nnc(NC(=O)CN2CCC(c3nc4ccccc4o3)CC2)s1 | > 10 | > 10
2 | COc1ccc(-c2nc(NC(=O)c3ccc(-n4cccn4)nc3)sc2C)cc1 | > 10 | > 10
3 | C=CCNC(=O)CN(C)S(=O)(=O)c1ccc2c(c1)OCCCO2 | > 10 | > 10
4 | Cc1cccc(NC(=O)CNC(=O)c2ccc3c(c2)C(=O)N(C)C3=O)c1C | > 10 | > 10
5 | O=C(c1ccc(=O)[nH]c1)N1CCN(Cc2nc(=O)c3ccccc3[nH]2)CC1 | > 10 | > 10
6 | Cc1ccc(NC(=O)c2cccc(NS(=O)(=O)c3ccc(C)c(F)c3)c2)nc1 | > 10 | > 10
7 | Cc1cc(Oc2ccc(-c3ccccc3)cc2)nc(C)n1 | > 10 | > 10
8 | Cc1cccc(C(=O)NC(C(=O)Nc2ccn(C)n2)C(C)C)c1 (configuration not stated) | > 10 | > 10
9 | Cc1ccc(C(=O)NCCSc2ccc(Cl)cc2)o1 | > 10 | > 10
10 | COc1ccccc1CNC(=O)CN1CCN(c2cc(C)nc(C(C)C)n2)CC1 | > 10 | > 10
11 | COC(=O)c1ccc(C)c(NC(=O)CCc2ccc3c(c2)OCCO3)c1 | > 10 | > 10
12 | CS(=O)(=O)c1ccc(S(=O)(=O)Nc2cccc3c2CCCC3)cc1 | > 10 | > 10
13 | CCOc1cccc(C(=O)Nc2c(C)cc(Br)cc2C)c1 | > 9.48 | > 9.48
14 | Cc1ccc(C)c(OCC(O)Cn2nc(C)c3ccccc3c2=O)c1C (configuration not stated) | > 10 | > 10
15 | CC(C)CNC(=O)c1cc(Br)ccc1O | > 10 | > 10
16 | Cc1cc2ncn(CC(O)CN3CCOCC3)c2cc1C (configuration not stated) | > 10 | > 10
17 | Cc1cc(OCC(=O)N(C)Cc2nc3ccsc3c(=O)[nH]2)ccc1C(C)C | > 10 | > 10
18 | O=C(CCc1ncc(-c2ccccc2)o1)Nc1ncccc1O | > 10 | > 10

Row | SMILES | IC50 [µM] | IC90 [µM]
19 | CCN(CC(=O)Nc1cccc(OC)c1)C(=O)C1Cc2ccccc2O1 (configuration not stated) | > 10 | > 10
20 | CCCc1ccc(C(NC(=O)Cn2ccc(=O)[nH]c2=O)c2cccs2)cc1 (configuration not stated) | > 10 | > 10
21 | O=C1CN(C(=O)Cc2ccc3c(c2)CCO3)c2ccccc2N1 | > 10 | > 10
22 | Cc1ccc(S(=O)(=O)Nc2ccc(C(=O)Nc3ncccc3O)cc2)cc1C | 7.38 | > 10
23 | CC(C)C1NC(=O)N(CCCOc2ccc(C(C)(C)C)cc2)C1=O (configuration not stated) | 9.61 | > 10
24 | COc1ccccc1N(C(=O)c1cccc(C#N)c1)c1nc2ccccc2s1 | > 10 | > 10
25 | Cc1ccc(-c2nc(C(=O)N3CCCc4ccccc43)cs2)cc1 | 2.91 | > 10
26 | COc1ccc(C(=O)C2CCN(c3nn4cc(C(C)(C)C)nc4s3)CC2)cc1 | 3.34 | 4.16
27 | COc1ccc(C)cc1C(C)NC(=O)c1cc2ccsc2[nH]1 (configuration not stated) | > 10 | > 10
28 | Cc1ccc(Oc2ccc(OCC(=O)NC3CCN(C(C)C)CC3)cc2)cc1 | > 10 | > 10
29 | C=CCNS(=O)(=O)c1ccc(C(=O)NCc2ccccc2OC(F)F)cc1 | > 10 | > 10
30 | COc1ccc(OC)c(CSc2nnc(Nc3cccc(F)c3)s2)c1 | > 10 | > 10
31 | CCn1c(SCC(=O)NC(=O)NCc2cccs2)nnc1C1CC1 | > 10 | > 10
32 | CCc1cccc(NC(=O)c2cc(C3CC3)nc3c2c(C)nn3C)c1 | > 10 | > 10
33 | CCOc1ncccc1C(=O)Nc1ccc(NC(=O)C2CC2)cc1C(F)(F)F | > 10 | > 10
34 | O=C1CC2(CCCC2)C(=O)N1CC(O)c1ccccc1 (configuration not stated) | > 10 | > 10
35 | N#Cc1ccc(OCC(=O)c2ccc(OC(F)F)cc2OC(F)F)cc1 | > 10 | > 10
36 | CCc1cccc2c(C3=CCN(c4ncccn4)CC3)c[nH]c12 | > 10 | > 10
